Data on four compounds can be found in ChEMBL document CHEMBL3217439, “Deciphering intracellular targets of organochalcogen based redox catalysts” (Medchemcomm, 2012).

Assay [1] is filed under the species Oryctolagus cuniculus. Nature of the assay: Binding affinity to rabbit actin polymerization at IC50 after 2 hrs by DARTS-Western blot method.
A short description of assay [2]: Cytotoxicity against Potorous tridactylus PtK2 cells after 18 hrs by MTT assay. To be noted: PtK2, 18 h. The class given is functional, cell-based. (In general: Tetrazolium assays rely on reduction of a dye to a coloured formazan, in cell work by metabolically active cells.)
The test system of assay [3] is HUVEC. Nature of the assay: Cytotoxicity against HUVEC after 18 hrs by MTT assay. The class given is functional, cell-based. To be noted: Homo sapiens.
In assay [4] the test system is A-431. Nature of the assay: Cytotoxicity against human A431 cells after 18 hrs by MTT assay. The format is functional, cell-based. Conditions: A-431, 18 h.
The next assay deals with HCT-116. Nature of the assay: Cytotoxicity against human HCT116 cells after 18 hrs by MTT assay. The class given is functional, cell-based. Conditions: HCT-116, 18 h.
A short description of assay [5]: Cytotoxicity against human KB3-1 cells after 18 hrs by MTT assay. The format is functional, cell-based. To be noted: KB 3-1, 18 h.
The next assay deals with L929. Put plainly: Cytotoxicity against mouse L929 cells after 18 hrs by MTT assay. The class given is functional, cell-based. Conditions: L929, 18 h.
The test system of assay [6] is A-431. Nature of the assay: Increase in ROS production in human A431 cells at after 1 hr by DCF assay. The format is functional, cell-based.
For assay [7], the system named is HUVEC. Put plainly: Increase in ROS production in HUVEC at after 1 hr by DCF assay. The class given is functional, cell-based. Conditions: Homo sapiens.
Assay [8] deals with A-431. Put plainly: Increase in ROS production in human A431 cells at after 1 hr by DHE assay. The format is functional, cell-based.
The test system of assay [9] is HUVEC. Put plainly: Increase in ROS production in HUVEC at after 1 hr by DHE assay. The class given is functional, cell-based. To be noted: Homo sapiens.
Assay [10] has as its system A-431. Nature of the assay: Reduction in ATP level in human A431 cells assessed as cell viability after 10 mins by Cell Titer Glo luminescent assay. The class given is functional, cell-based. (In general: ATP-based viability assays read luminescence as a measure of living cells.)
In assay [11] the test system is A-431. Nature of the assay: Induction of apoptosis in human A431 cells assessed as caspase3/7 activation at 2.6 uM after 5 to 25 mins by luminescence assay. The class given is functional, cell-based.
For assay [12], the system named is A-431. Nature of the assay: Induction of apoptosis in human A431 cells at 10 ug/ml after 16 hrs using annexin V/propidium iodide by flow cytometry. The format is functional, cell-based. (In flow cytometry, cells or beads pass a laser one at a time.)
For assay [13], the system named is A-431. Nature of the assay: Induction of apoptosis in human A431 cells at 12 ug/ml after 16 hrs using annexin V/propidium iodide by flow cytometry. The format is functional, cell-based.
Assay [14] concerns Escherichia coli. Put plainly: Antimicrobial activity against Escherichia coli expressing tolC after 1 to 2 days by agar diffusion assay. The format is functional, organism-based.
Assay [15] has as its system Escherichia coli. Nature of the assay: Antimicrobial activity against Escherichia coli A1 after 1 to 2 days by agar diffusion assay. The class given is functional, organism-based.
The next assay relates to Klebsiella pneumoniae. Put plainly: Antimicrobial activity against Klebsiella pneumoniae after 1 to 2 days by agar diffusion assay. The class given is functional, organism-based.
Another assay relates to Pseudomonas aeruginosa. Nature of the assay: Antimicrobial activity against Pseudomonas aeruginosa after 1 to 2 days by agar diffusion assay. The class given is functional, organism-based.
For the next assay, the system named is Staphylococcus aureus. Put plainly: Antimicrobial activity against Staphylococcus aureus after 1 to 2 days by agar diffusion assay. The format is functional, organism-based.
The next assay deals with Micrococcus luteus. Nature of the assay: Antimicrobial activity against Micrococcus luteus after 1 to 2 days by agar diffusion assay. The format is functional, organism-based.
The next assay has as its system Mycolicibacterium phlei. Put plainly: Antimicrobial activity against Mycobacterium phlei after 1 to 2 days by agar diffusion assay. The class given is functional, organism-based.
For the next assay, the system named is Wickerhamomyces anomalus. Put plainly: Antimicrobial activity against Hansenula anomala after 1 to 2 days by agar diffusion assay. The class given is functional, organism-based.
A further assay concerns Botrytis cinerea. Put plainly: Antimicrobial activity against Botrytis cinerea after 1 to 2 days by agar diffusion assay. The class given is functional, organism-based.
In assay [16] the test system is Globisporangium debaryanum. Put plainly: Antimicrobial activity against Pythium debaryanum after 1 to 2 days by agar diffusion assay. The format is functional, organism-based.
In another assay the test system is Aspergillus niger. Put plainly: Antimicrobial activity against Aspergillus niger after 1 to 2 days by agar diffusion assay. The class given is functional, organism-based.
Assay [17] addresses T1, Tubulin (Sus scrofa) (UniProt P02554+P02550). Nature of the assay: (§1) Inhibition of pig brain tubulin polymerization by spectrophotometry.
The nature of assay [18]: Inhibition of rabbit actin polymerization by spectrophotometry. Set-up: species or system Oryctolagus cuniculus.
Assay [19] addresses T1, Tubulin (Sus scrofa). Put plainly: Binding affinity to pig brain tubulin at IC50 after 2 hrs by DARTS-Western blot method.
Assay [20] can be described thus: Depletion of microtubules in Potorous tridactylus PtK2 cells at IC90 by microscopy. The class given is cell-based.
Assay [21] in a line: Depletion of actin filaments in Potorous tridactylus PtK2 cells at IC90 by microscopy. The format is cell-based.
The target in assay [22] is T1, Tubulin (Sus scrofa). Nature of the assay: Binding affinity to pig brain tubulin after 2 hrs by DARTS-Western blot method. The format is tissue-based.
In a further assay the target is Tubulin (Sus scrofa, UniProt P02554+P02550). The assay is described as §1.
Assay [23] is filed under the species Oryctolagus cuniculus. Put plainly: Binding affinity to rabbit actin polymerization after 2 hrs by DARTS-Western blot method.
Assay [24] has as its target T1, Tubulin (Sus scrofa). Put plainly: Binding affinity to pig brain tubulin at IC90 after 2 hrs by DARTS-Western blot method.
The species named for assay [25] is Oryctolagus cuniculus. Put plainly: Binding affinity to rabbit actin polymerization at IC90 after 2 hrs by DARTS-Western blot method.

As usually defined, the IC50 is the point on the concentration scale where inhibition reaches its midpoint. A higher IC50 goes with weaker potency in that assay.

Molecules are shown by their SMILES. Activity calls are given as the source filed them. The calls are words filed in the database; no cut-off is given here.

T1 sequence (P02550 whole entry, looked up): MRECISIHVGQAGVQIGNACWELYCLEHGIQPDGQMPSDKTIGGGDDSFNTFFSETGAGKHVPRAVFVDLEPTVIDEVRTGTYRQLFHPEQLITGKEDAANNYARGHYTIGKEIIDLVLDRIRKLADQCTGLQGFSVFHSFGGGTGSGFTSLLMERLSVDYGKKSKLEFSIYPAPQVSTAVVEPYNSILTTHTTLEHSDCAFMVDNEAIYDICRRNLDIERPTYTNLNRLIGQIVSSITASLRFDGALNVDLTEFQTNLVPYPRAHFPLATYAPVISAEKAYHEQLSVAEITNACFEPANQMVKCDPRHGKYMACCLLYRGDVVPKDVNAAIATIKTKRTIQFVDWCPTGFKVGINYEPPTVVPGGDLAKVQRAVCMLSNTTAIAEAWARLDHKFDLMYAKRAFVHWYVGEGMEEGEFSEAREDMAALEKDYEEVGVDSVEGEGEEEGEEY
T1 sequence (P02554 whole entry, looked up): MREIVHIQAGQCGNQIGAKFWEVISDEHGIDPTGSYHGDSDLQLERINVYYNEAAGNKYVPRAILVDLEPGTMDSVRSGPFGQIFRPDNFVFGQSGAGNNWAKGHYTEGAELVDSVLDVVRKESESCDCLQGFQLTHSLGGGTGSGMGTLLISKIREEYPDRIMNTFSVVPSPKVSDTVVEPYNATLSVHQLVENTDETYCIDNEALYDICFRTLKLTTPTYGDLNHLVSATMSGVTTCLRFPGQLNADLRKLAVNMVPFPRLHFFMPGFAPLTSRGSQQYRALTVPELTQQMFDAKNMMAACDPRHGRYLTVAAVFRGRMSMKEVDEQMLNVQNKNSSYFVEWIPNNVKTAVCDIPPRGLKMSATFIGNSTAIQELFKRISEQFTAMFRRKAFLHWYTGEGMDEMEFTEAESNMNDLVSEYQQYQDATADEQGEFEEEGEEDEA

For `COC1CC(O)/C=C/C=C/C=C\C(C)C(C(C)C(O)CC(C)O)OC(=O)/C=C/C=C/C=C/C(C)=C/C(C)C(O[C@H]2O[C@H](C)[C@@H](O)[C@H](OC)[C@H]2OC)/C=C\C=C\c2coc(n2)C1C` (stereo partly specified), in the assay listed under Oryctolagus cuniculus [1], the outcome was Active.

Turning to `O=C1C([Te]c2ccccc2)=C([Te]c2ccccc2)C(=O)c2ccccc21`, the 50% inhibitory concentration (IC50) was 7.2 µM in assay [2]; 5.1 µM in the assay with HUVEC [3]; 4.4 µM in the assay with A-431 [4]; 5.4 µM in the assay on HCT-116; 0.25 µM in [5]; 5.8 µM with L929. Further, the IC50 in assay [18] was determined as 30 µM. In addition, the Activity result with A-431 [6], with HUVEC [7], in the assay with A-431 [8] and with HUVEC [9] was “Dose-dependent effect” each time. The result in the assay with A-431 [10], in the assay with A-431 [11], with A-431 [12], in the assay with A-431 [13], in the assay on Escherichia coli [14] and in the assay with Escherichia coli [15] was Active. Further, the outcome in the assay on Klebsiella pneumoniae, with Staphylococcus aureus, with Micrococcus luteus, in the assay on Mycolicibacterium phlei, in the assay with Wickerhamomyces anomalus and with Botrytis cinerea was Active. Further, the outcome (in assay [16]; with Aspergillus niger; in the assay filed under Oryctolagus cuniculus [1]; in [21]) was Active. Further, the result (with Pseudomonas aeruginosa; at Tubulin (Sus scrofa) [19]; in [20]) was inactive. On Tubulin (Sus scrofa) [17], the inhibition entry was “inactive”.

For the compound `CC[C@@H](C)[C@H](NC(=O)[C@H]1CCCCN1C)C(=O)N(COC(=O)CC(C)C)[C@H](C[C@@H](OC(C)=O)c1nc(C(=O)N[C@@H](Cc2ccc(O)cc2)C[C@H](C)C(=O)O)cs1)C(C)C`, the outcome at Tubulin (Sus scrofa) [22] was Active.

As to `CC1=C([Te]c2ccccc2)C(=O)c2ccccc2C1=O`, the IC50 in assay [2] was determined as 9 µM; with HUVEC [3], 9.5 µM; in the assay with A-431 [4], 5 µM; in the assay on HCT-116, 5.3 µM; in assay [5], 1.3 µM; in the assay on L929, 11 µM. For the same compound, the values for the IC50 (against Tubulin; in [18]) were 15 µM and 30 µM, respectively. Moreover, the Activity result in the assay on A-431 [6], with HUVEC [7], with A-431 [8], in the assay with HUVEC [9], on Tubulin (Sus scrofa) [22] and in the assay filed under Oryctolagus cuniculus [23] was “Dose-dependent effect” each time. Besides, the result in the assay with A-431 [10], with A-431 [11], in the assay with A-431 [12], in the assay on A-431 [13], in the assay on Escherichia coli [14] and in the assay with Escherichia coli [15] was Active. Further, the result with Klebsiella pneumoniae, with Staphylococcus aureus, with Micrococcus luteus, with Mycolicibacterium phlei, in the assay with Wickerhamomyces anomalus and in the assay on Botrytis cinerea was Active. Moreover, the outcome (in assay [16]; in the assay on Aspergillus niger; on Tubulin (Sus scrofa) [24]; in the assay filed under Oryctolagus cuniculus [25]; in assay [20]; in assay [21]) was Active. Besides, in the assay on Pseudomonas aeruginosa, the outcome was inactive.
